# Laboratory results as given in patent publication US20240101540A1, “TARGETED PROTEIN DEGRADATION OF PARP14 FOR USE IN THERAPY” (Ribon Therapeutics, Inc., priority 2022, published 2024).
# “Also recorded” adds a separate entry of the source.
# Columns and labels:
# [1] = test system: Alternaria asthma mouse model; experiment: Alternaria asthma mouse model: cell counts and cytokines in BALF; type: in vivo; conditions: Alternaria-challenged male Balb/c mice, 30, 100, 300, 1000 mg/kg once daily for 7 days by oral gavage, vs vehicle control (P<0.05), dose-dependent starting from 100 mg/kg
# Experimental: The effect of Compound 64 was studied in an Alternaria asthma mouse model. On days 1-5, male Balb/c mice under isoflurane anesthesia were challenged by instilling a solution of 5 μg (protein weight) Alternaria in 40 μL of PBS into each nostril. Sham-treated mice were administered 40 μL of PBS into each nostril. Compound 64 was administered two days prior to Alternaria challenge (defined day as day −1) and animals were treated with vehicle (0.5% methylcellulose+0.2% Tween 20) or Compound Y (30, 100, 300, 1000 mg/kg) once daily for 7 days (defined as day −1 to day 5) by oral gavage. Total and differential cell counts of the BALF fluid samples were measured using a XT-2000iV analyzer (Sysmex). Cytokine concentrations of BALF supernatant were measured in samples from all groups using ELISA kit (Biotechne, UK).
# Statistical significance is calculated using one-way ANOVA followed by Dunnett's post-tests in which the treatment groups were compared to vehicle control (P<0.05).
# [2] = molecular target: T1, catalytic domain of human PARP14 (residues 1611 to 1801) with NanoLuc tag (Homo sapiens, UniProt Q460N5); experiment: NanoLuc assay for the degradation of PARP14 (NanoLuc-tagged PARP14 overexpressed in HEK-293T cells, 2 hours); type: cell-based; conditions: Assay A (Example A): NanoLuc-tagged PARP14 degradation in HEK-293T cells, read-out: DC50
# T1 construct: expressed in transfected cells; host or cells: HEK-293T cells (ATCC), pcDNA3.1(-) vector
# T1 sequence (Q460N5 1611-1801): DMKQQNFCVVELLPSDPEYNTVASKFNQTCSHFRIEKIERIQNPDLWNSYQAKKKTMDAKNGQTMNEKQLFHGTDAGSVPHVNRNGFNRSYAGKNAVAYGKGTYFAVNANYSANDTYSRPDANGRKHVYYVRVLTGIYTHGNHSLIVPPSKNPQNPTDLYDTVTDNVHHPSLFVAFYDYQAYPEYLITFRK
smiles,measurement,setting,value
"O=C1CCC(Nc2ccc(N3CCN(CCN4CCC(COc5cc(F)c6c(=O)[nH]c(CSC7CCOCC7)nc6c5)CC4)CC3)c(F)c2)C(=O)N1 (racemic) [Example 64, 3-((3-fluoro-4-(4-(2-(4-(((5-fluoro-4-oxo-2-(((tetrahydro-2H-pyran-4-yl)thio)methyl)-3,4-dihydroquinazolin-7-yl)oxy)methyl)piperidin-1-yl)ethyl)piperazin-1-yl)phenyl)amino)piperidine-2,6-dione]",cytokine IL-4 in BALF,[1]; ELISA of BALF supernatant,significantly reduces
same,cytokine IL-5 in BALF,[1]; ELISA of BALF supernatant,significantly reduces
same,cytokine IL-33 in BALF,[1]; ELISA of BALF supernatant,significantly reduces
same,eosinophils in BALF,[1],significantly reduces
same,total cell counts in BALF (Alternaria-induced cell infiltration),[1],significantly reduces; also recorded: dose-dependent reduction
same,DC50,[2],< 100 nM
